According to US9051612B2, “Compositions and methods for nucleotide sequencing” (Illumina, Inc., priority 2006, dated 2015):

Molecular target: T1, calf intestinal alkaline phosphatase (Bos taurus, UniProt P19111)
T1 construct: purchased USB
Test: Enzymatic removal of 2′ phosphate blocking group with alkaline phosphatase
Type: biochemical
Settings: aqueous buffer, room temperature

T1 sequence (P19111 20-506): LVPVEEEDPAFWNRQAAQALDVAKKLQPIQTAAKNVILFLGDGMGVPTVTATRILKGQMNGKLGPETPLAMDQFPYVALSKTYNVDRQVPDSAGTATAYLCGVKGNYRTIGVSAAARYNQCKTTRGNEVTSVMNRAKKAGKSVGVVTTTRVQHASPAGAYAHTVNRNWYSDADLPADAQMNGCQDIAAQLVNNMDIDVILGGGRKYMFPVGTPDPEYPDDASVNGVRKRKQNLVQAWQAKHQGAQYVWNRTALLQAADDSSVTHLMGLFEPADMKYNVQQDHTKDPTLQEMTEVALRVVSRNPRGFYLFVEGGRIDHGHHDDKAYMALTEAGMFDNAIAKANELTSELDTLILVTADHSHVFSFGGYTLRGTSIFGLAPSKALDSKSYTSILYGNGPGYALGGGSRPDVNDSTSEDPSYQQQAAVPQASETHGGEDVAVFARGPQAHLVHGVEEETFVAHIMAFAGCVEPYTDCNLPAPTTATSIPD

O=c1ccn(C2OC(COP(=O)(O)OP(=O)(O)OP(=O)(O)O)C(O)C2OP(=O)(O)O)c(=O)[nH]1 (stereo not shown) [2′ reversible terminator, 2′-phosphate UTP]
removal of the phosphate blocking group: can be quantitatively removed using alkaline phosphatase in less than one minute
